Data set [1] deals with lean and DIO C57BL/6J mice. Put plainly: Oral glucose tolerance test (OGTT). The class given is in vivo, mouse. The conditions noted are these: lean (80 mg/kg) and DIO (60 mg/kg) mice, single i.p. dose 30 min before glucose gavage 3.0 g/kg, vs vehicle. Here is the method:
Wild-type lean C57BL/6J and diet-induced obese (DIO) C57BL/6J age-matched male mice were purchased from Jackson Laboratories, and used at ages 14-16, and 24-26 weeks respectively (>20 weeks of high-fat diet for the DIO mice). GCGR^/ mice were bred from heterozygous mice and used between 11 and 17 weeks. […] Blood glucose was measured from tail nicks using AccuCheck (Aviva) meters.
(§1) In vivo studies, general information. Wild-type C57BL/6J and diet-induced obese (DIO) C57BL/6J age-matched male adult mice were purchased from Jackson Laboratories. The age range was 13 to 15 weeks for lean mice, and 24 to 26 weeks for DIO mice. All animals were individually housed on a 14-h light, 10-h dark schedule at the Biology Research Infrastructure (BRI), Harvard University. Cage enrichment included cotton bedding and a red plastic hut. […]
(§2) Glucose tolerance tests GTT and blood glucose measurements. […] Blood glucose was measured using AccuCheck® meters (Aviva) from blood droplets obtained from a small nick at the tip of the tail, at timepoints −45, 0, 15, 30, 45, 60, 90 and 120 min with reference to the time of glucose injection. The area of the blood glucose response profile curve corresponding to each animal was calculated by the trapezoid method^17, using as reference each individual baseline blood glucose measurement prior to glucose administration (t=0). […]

Data set [2] can be described thus: Plasma stability (1 h incubation). The class given is in vitro ADME. The conditions noted are these: after 1 h.
Another data set concerns lean mice. Put plainly: Basal blood glucose and hormone levels without nutrient challenge. The conditions noted are these: 80 mg/kg, no glucose challenge, vs controls. Format: in vivo, mouse. Here is the method: Glucose tolerance tests GTT and blood glucose measurements. Prior to a glucose challenge, the animals were fasted for 14 h (8 pm to 10 am, during the dark cycle) while individually housed in a clean cage with inedible wood-chip as a floor substrate, cotton bedding and a red plastic hut. Inhibitor, vehicle or control compounds were administered by a single intraperitoneal (i.p.) injection 30 min prior to the glucose challenge. Dextrose was formulated in sterile saline (3 g in 10 mL total), and the dose was adjusted by fasted body weight. For oGTT, 3.0 g/kg dextrose was administered by gavage at a dose of 10 mL/kg, and for ipGTT, 1.5 g/kg dextrose injected at a dose of 5 mL/kg. Blood glucose was measured using AccuCheck® meters (Aviva) from blood droplets obtained from a small nick at the tip of the tail, at timepoints −45, 0, 15, 30, 45, 60, 90 and 120 min with reference to the time of glucose injection. The area of the blood glucose response profile curve corresponding to each animal was calculated by the trapezoid method^17, using as reference each individual baseline blood glucose measurement prior to glucose administration (t=0). […] Values are reported as mean±S.E.M. Statistics were performed using a two-tail Student's t-test, and significance levels shown in the figures are *p<0.05 versus vehicle control group or **p<0.01 versus vehicle control group. […]

For a further data set, the system named is GCGR−/− mice. Put plainly: Glucose tolerance tests in glucagon receptor knockout mice. Format: in vivo, mouse. The conditions noted are these: 80 mg/kg.
Excerpt: as §1, with “hut. Water and food were available ad libitum, consisting respectively of normal chow (Prolab® RHM 3000) or high-fat diet (60 kcal % fat, D12492, Research Diets Inc.).” for “hut.”
as §2

Data set [3] is described as follows: Plasma protein binding assay. Format: in vitro ADME.
The target in data set [4] is T1, IDE (R&D) (Homo sapiens, UniProt P14735). Briefly: Homogeneous time-resolved fluorescence (HTRF) insulin degradation assay. The class given is biochemical. Also on record: recombinant human IDE42-1019 (R&D Systems); purchased R&D. The method, then:
All data points and error bars represent mean±SEM. Significance tests were performed using two-tail Student's t-test, and significance levels shown in the figures are p<0.05 (*) or p<0.01 (**) versus the vehicle-only control group. The in vitro selection of the DNA-templated macrocycle libraryl^16,17 used 20 μg His6-tagged mouse IDE immobilized on cobalt magnetic beads (Dynabeads, Invitrogen). IDE proteolytic activity was assayed with fluorogenic peptide Mca-[…](Dnp)-OH (R&D). IDE inhibition was confirmed using an anti-insulin antibody time-resolved FRET assay (Cysbio), and using an LCMS assay for CGRP cleavage fragments CGRP1-17 and CGRP18-37 in plasma^18. […] IDE degradation assays for insulin and calcitonin-gene related peptide (CGRP). […] Fluorescence was measured using a Tecan Safire 2 plate reader (excitation=320 nm, emission=665 and 620 nm, lag time=60 μs) according the assay manufacturer's recommendations. Degradation of CGRP by endogenous IDE in mouse plasma was analyzed by LC-MS for the formation of CGRP1-17 and CGRP18-37 as previously reported^6.
On the technique in general: TR-FRET usually uses a lanthanide donor and a delayed reading to cut background.

The target of data set [5] is T1, IDE (R&D). Briefly: Yonetani-Theorell double inhibitor kinetic assay. The conditions noted are these: 6b together with substrate mimetic Ii1. The class given is biochemical. Also on record: recombinant human IDE42-1019 (R&D Systems); purchased R&D Systems. The text has this:
Protease assays with fluorogenic peptide substrates. […] All assay data points were obtained in duplicate.

This is an account of results in patent US20160282364A1, “ASSAY FOR INSULIN-DEGRADING ENZYME (IDE) INHIBITORS” (PRESIDENT AND FELLOWS OF HARVARD COLLEGE, priority 2013, published 2016).

“Also recorded” adds a separate entry of the source.

T1 sequence (P14735 42-1019): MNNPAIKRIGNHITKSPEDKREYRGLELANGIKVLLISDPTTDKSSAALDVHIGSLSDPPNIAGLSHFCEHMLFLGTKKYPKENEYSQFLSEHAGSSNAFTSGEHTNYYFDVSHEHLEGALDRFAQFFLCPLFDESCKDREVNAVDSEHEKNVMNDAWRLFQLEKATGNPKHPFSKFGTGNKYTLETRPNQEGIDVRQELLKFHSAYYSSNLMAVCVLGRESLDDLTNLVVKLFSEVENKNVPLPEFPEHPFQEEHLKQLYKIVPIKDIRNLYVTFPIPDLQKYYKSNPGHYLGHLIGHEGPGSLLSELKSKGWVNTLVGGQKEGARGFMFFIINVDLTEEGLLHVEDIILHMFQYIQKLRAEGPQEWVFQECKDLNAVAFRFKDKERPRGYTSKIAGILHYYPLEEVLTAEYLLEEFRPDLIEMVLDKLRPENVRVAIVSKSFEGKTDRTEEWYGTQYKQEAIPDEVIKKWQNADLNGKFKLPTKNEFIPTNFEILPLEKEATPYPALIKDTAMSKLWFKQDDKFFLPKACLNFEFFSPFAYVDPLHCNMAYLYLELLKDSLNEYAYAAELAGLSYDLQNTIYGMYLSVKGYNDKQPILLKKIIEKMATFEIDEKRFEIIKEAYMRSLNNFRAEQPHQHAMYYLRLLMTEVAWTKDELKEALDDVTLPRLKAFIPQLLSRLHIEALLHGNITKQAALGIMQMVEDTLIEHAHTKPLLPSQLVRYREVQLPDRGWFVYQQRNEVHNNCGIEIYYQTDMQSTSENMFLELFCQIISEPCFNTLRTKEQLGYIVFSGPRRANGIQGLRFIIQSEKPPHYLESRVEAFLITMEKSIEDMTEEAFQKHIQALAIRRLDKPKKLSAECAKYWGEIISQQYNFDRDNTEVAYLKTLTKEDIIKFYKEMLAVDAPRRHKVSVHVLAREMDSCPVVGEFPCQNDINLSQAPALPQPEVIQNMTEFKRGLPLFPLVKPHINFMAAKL

Regarding `NCCCC[C@@H]1NC(=O)/C=C/C(=O)N[C@H](C(N)=O)CCCCNC(=O)[C@@H](Cc2ccc(C(=O)c3ccccc3)cc2)NC(=O)[C@H](CC2CCCCC2)NC1=O` [Compound 6bK], the results for the oral glucose tolerance result (in data set [1]; with GCGR−/− mice (vs vehicle)) were “significantly improved; also recorded: improved glucose tolerance” and “improvement”, respectively. Besides, the “remaining after incubation with plasma” value in data set [2] is listed as 74%. The “basal blood glucose or hormone levels” value in the data set on lean mice was “did not significantly alter”. In the data set on GCGR−/− mice (6bK vs vehicle), the “response to i.p. injected glucose” value is listed as “virtually identical”. The “unbound in plasma protein binding assay” value in data set [3] is ~6%.

Consider `NC(=O)CCC1NC(=O)C=CC(=O)NC(C(N)=O)CCCCNC(=O)C(Cc2ccc(C(=O)c3ccccc3)cc2)NC(=O)C(CC2CCCCC2)NC1=O` (centres unmarked) [Compound 6b], for which, on IDE (R&D) [4], the “inhibition of IDE proteolytic activity, insulin immunoassay” value is recorded as “confirmed”. For the same compound, the “mode of double inhibition with Ii1” value at IDE (R&D) [5] is on record as “synergistic”.
